ChEMBL document CHEMBL1201862, “PubChem BioAssay data set” (2004)
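All cell lines were grown in 96-well plates and treated with compound for 48 hours. The concentration for 50% growth inhibition is given as GI50.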 Calls of active or inactive are those of the source. No stated cut-off is given here; in the data, active = GI50 up to about 1.1 µM and inactive = higher.

What was measured:
Assay in all cases: NCI anticancer screen, dose series, 48 h
[1] = test system: MDA-MB-231
[2] = test system: CCRF-CEM
[3] = test system: UACC-257
[4] = test system: MDA-MB-435
[5] = test system: SK-MEL-28
[6] = test system: TK-10
[7] = test system: CAKI-1
[8] = test system: SNB-19
[9] = test system: OVCAR-8
[10] = test system: HCT-15
[11] = test system: PC-3
[12] = test system: A498
[13] = test system: SF-295
[14] = test system: RPMI-8226
[15] = test system: T47D
[16] = test system: SR
[17] = test system: NCI-H460
[18] = test system: K562
[19] = test system: MOLT-4
[20] = test system: NCI/ADR-RES

SMILES | GI50 [1] | GI50 [2] | GI50 [3] | GI50 [4] | GI50 [5] | GI50 [6] | GI50 [7] | GI50 [8] | GI50 [9] | GI50 [10] [µM] | GI50 [11] | GI50 [12] | GI50 [13] | GI50 [14] | GI50 [15] | GI50 [16] | GI50 [17] | GI50 [18] | GI50 [19] | GI50 [20]
O=C(O)c1cccc(SSc2cccc(C(=O)O)c2)c1 | > 100 µM (inactive) | 28.8 µM (inactive) | > 100 µM (inactive) | > 100 µM (inactive) | > 100 µM (inactive) | > 100 µM (inactive) | > 100 µM (inactive) | > 100 µM (inactive) | > 100 µM (inactive) | > 100 | > 100 µM (inactive) | > 100 µM (inactive) | > 100 µM (inactive) | > 100 µM (inactive) | > 100 µM (inactive) | > 100 µM (inactive) | > 100 µM (inactive) | > 100 µM (inactive) | > 100 µM (inactive) | > 100 µM (inactive)
Cc1ccc2c(c1)C(=O)C1(C2)Cc2c(C)cccc2C1=O (stereo not given) | > 100 µM (inactive) | > 100 µM (inactive) | > 100 µM (inactive) | > 100 µM (inactive) | > 100 µM (inactive) | > 100 µM (inactive) | > 100 µM (inactive) | > 100 µM (inactive) | > 100 µM (inactive) | > 100 | > 100 µM (inactive) | > 100 µM (inactive) | > 100 µM (inactive) | > 100 µM (inactive) | > 100 µM (inactive) | > 100 µM (inactive) | > 100 µM (inactive) | > 100 µM (inactive) | > 100 µM (inactive) | > 100 µM (inactive)
C[C@]12C=CC(=O)C=C1[C@@H](F)C[C@H]1[C@@H]3CC[C@](O)(C(=O)CO)[C@@]3(C)C[C@H](O)[C@@]12F | > 100 µM (inactive) | 0.543 µM (active) | > 100 µM (inactive) | > 100 µM (inactive) | > 100 µM (inactive) | > 100 µM (inactive) | > 100 µM (inactive) | > 100 µM (inactive) | > 100 µM (inactive) | > 100 | > 100 µM (inactive) | > 100 µM (inactive) | > 100 µM (inactive) | > 87.5 µM (inactive) | > 100 µM (inactive) | > 100 µM (inactive) | > 100 µM (inactive) | > 100 µM (inactive) | > 100 µM (inactive) | > 100 µM (inactive)
c1ccc(-c2c[nH]c(SC(c3ccccc3)c3ccccc3)n2)cc1 | 58.6 µM (inactive) | 19.3 µM (inactive) | 18 µM (inactive) | 21.1 µM (inactive) | 33.7 µM (inactive) | 21.1 µM (inactive) | 13.8 µM (inactive) | 38 µM (inactive) | 19.6 µM (inactive) | 13.3 | 22.1 µM (inactive) | 24.7 µM (inactive) | 15.2 µM (inactive) | 10.8 µM (inactive) | 8.95 µM (inactive) | 13.3 µM (inactive) | 10.2 µM (inactive) | 12.7 µM (inactive) | 15.7 µM (inactive) | 11.1 µM (inactive)
CCOC(=O)c1nc2cc(C(F)(F)F)ccc2nc1Nc1ccc(C(=O)OC)s1 | 23.6 µM (inactive) | 30.6 µM (inactive) | 36.5 µM (inactive) | 47.2 µM (inactive) | 45 µM (inactive) | 42.8 µM (inactive) | 31.3 µM (inactive) | 33.1 µM (inactive) | 41.2 µM (inactive) | 34.2 | 30.7 µM (inactive) | 40.9 µM (inactive) | 43 µM (inactive) | 30.7 µM (inactive) | 25.7 µM (inactive) | 15.5 µM (inactive) | 33 µM (inactive) | 31.6 µM (inactive) | 27.1 µM (inactive) | 45.5 µM (inactive)
CCOC(=O)/C(C#N)=C(/NS(=O)(=O)c1cc(C)c(Cl)cc1[S-])[n+]1ccc(N(C)C)cc1 | > 100 µM (inactive) | > 100 µM (inactive) | > 100 µM (inactive) | > 100 µM (inactive) | > 100 µM (inactive) | > 100 µM (inactive) | > 100 µM (inactive) | > 100 µM (inactive) | > 100 µM (inactive) | > 100 | > 100 µM (inactive) | > 100 µM (inactive) | > 100 µM (inactive) | > 100 µM (inactive) | > 100 µM (inactive) | > 100 µM (inactive) | > 100 µM (inactive) | > 100 µM (inactive) | > 100 µM (inactive) | > 100 µM (inactive)
Cc1csc2nc(-c3cc([N+](=O)[O-])c(Cl)cc3Cl)c(/C=N/N=C(N)N)n12 | 14.8 µM (inactive) | 27.2 µM (inactive) | 17.8 µM (inactive) | 17.1 µM (inactive) | 16.4 µM (inactive) | 16.8 µM (inactive) | 15.6 µM (inactive) | 19.8 µM (inactive) | 19.2 µM (inactive) | 21.2 | 16.4 µM (inactive) | 19.6 µM (inactive) | 17.8 µM (inactive) | 16.7 µM (inactive) | 16.9 µM (inactive) | 0.0678 µM (active) | 20.2 µM (inactive) | 6.53 µM (inactive) | 0.0986 µM (active) | 15.3 µM (inactive)
COc1cc(/C=C2\CCC(CN(C)C)C2=O)ccc1OC(=O)c1ccccc1 (stereo not given) | 5.47 µM (inactive) | 1.96 µM (inactive) | 13.5 µM (inactive) | 14.3 µM (inactive) | 15.1 µM (inactive) | 11.3 µM (inactive) | 17.1 µM (inactive) | 11.4 µM (inactive) | 8.59 µM (inactive) | 8.17 | 16.4 µM (inactive) | 18.3 µM (inactive) | 17.7 µM (inactive) | 2.31 µM (inactive) | 3.76 µM (inactive) | 2.56 µM (inactive) | 19.3 µM (inactive) | 2.32 µM (inactive) | 2.28 µM (inactive) | 16.5 µM (inactive)
CCC(=O)C(CCN1CCC2(CCCc3ccccc32)CC1)(c1ccccc1)c1ccccc1 | 2.51 µM (inactive) | 1.78 µM (inactive) | 2.05 µM (inactive) | 3.49 µM (inactive) | 4.65 µM (inactive) | 3.77 µM (inactive) | 3.44 µM (inactive) | 4.75 µM (inactive) | 3.66 µM (inactive) | 2.55 | 2.45 µM (inactive) | 1.98 µM (inactive) | 2.02 µM (inactive) | 0.622 µM (active) | 3.29 µM (inactive) | 1.66 µM (inactive) | 2.52 µM (inactive) | 1.8 µM (inactive) | 1.41 µM (inactive) | 3.19 µM (inactive)
COC1=C[C@]2(CCC(=O)O2)[C@@H]2Cc3ccccc3[C@H](O)[C@@H]2C1=O | 34.6 µM (inactive) | 15.1 µM (inactive) | 22.1 µM (inactive) | 16.9 µM (inactive) | > 100 µM (inactive) | > 100 µM (inactive) | 47.6 µM (inactive) | > 100 µM (inactive) | 38 µM (inactive) | 41.1 | 31.2 µM (inactive) | > 100 µM (inactive) | > 100 µM (inactive) | 18.1 µM (inactive) | 13.1 µM (inactive) | 19.5 µM (inactive) | 85.9 µM (inactive) | 38.4 µM (inactive) | 17.9 µM (inactive) | 97.9 µM (inactive)
C=C(C)C(CC=C(C)C)Cc1c(O)cc(OC)c2c1OC(c1ccc(O)cc1O)C(O)C2=O (stereo not given) | 18.6 µM (inactive) | 50.8 µM (inactive) | 17.7 µM (inactive) | 16.9 µM (inactive) | 21.1 µM (inactive) | 21.8 µM (inactive) | 13.6 µM (inactive) | 15.5 µM (inactive) | 17 µM (inactive) | 17 | 13.5 µM (inactive) | 16.5 µM (inactive) | 15 µM (inactive) | > 100 µM (inactive) | 13.8 µM (inactive) | > 100 µM (inactive) | 15.5 µM (inactive) | > 100 µM (inactive) | > 100 µM (inactive) | 22.9 µM (inactive)
C=Cc1nc2c(Cl)ncnc2n1Cc1ccccc1 | 5.74 µM (inactive) | 2.74 µM (inactive) | 2.59 µM (inactive) | 2.65 µM (inactive) | 3.1 µM (inactive) | 2.11 µM (inactive) | 1.91 µM (inactive) | 14.8 µM (inactive) | 3.2 µM (inactive) | 2.51 | 3.52 µM (inactive) | 7.13 µM (inactive) | 15.6 µM (inactive) | 0.839 µM (active) | 2.59 µM (inactive) | 2.56 µM (inactive) | 7.8 µM (inactive) | 3.05 µM (inactive) | 2.18 µM (inactive) | 3.7 µM (inactive)
Cc1ccc(S(=O)(=O)N/C(=N\O)Nc2ccc(Cl)c(Cl)c2)cc1 | 9.98 µM (inactive) | 2.42 µM (inactive) | 4.68 µM (inactive) | 3.48 µM (inactive) | 3.34 µM (inactive) | 14.6 µM (inactive) | 5.41 µM (inactive) | 7.4 µM (inactive) | 8.04 µM (inactive) | 6.67 | 5.48 µM (inactive) | 10.3 µM (inactive) | 17.2 µM (inactive) | 10.1 µM (inactive) | 11.4 µM (inactive) | 5.69 µM (inactive) | 9.95 µM (inactive) | 13 µM (inactive) | 1.98 µM (inactive) | 12.8 µM (inactive)
NC(=O)NC(=O)c1cccc(NC(=O)CBr)c1 | 0.0631 µM (active) | < 0.01 µM (active) | < 0.0311 µM (active) | < 0.0143 µM (active) | 1.44 µM (inactive) | < 0.0231 µM (active) | < 0.01 µM (active) | 0.515 µM (active) | < 0.0172 µM (active) | < 0.0161 | < 0.0182 µM (active) | 0.102 µM (active) | 0.197 µM (active) | < 0.0141 µM (active) | 1.42 µM (inactive) | < 0.01 µM (active) | < 0.0509 µM (active) | < 0.01 µM (active) | < 0.01 µM (active) | < 0.0171 µM (active)
